Measured values from article PMC12845261, “Design, Synthesis, and Biological Evaluation of N-Acyl-Hydrazone-Linked Quinazolinone Derivatives with Antioxidant, Antimicrobial, and Anticancer Potential” (Pharmaceuticals, 2025).
Values after ≈ are worked out from the molar mass of the structure shown.

Tests used:
E. faecalis ATCC 29212 [1] = test: Qualitative antimicrobial activity, adapted Kirby-Bauer (inhibition zone); type: cell-based; conditions: 10 μL of 10 mg/mL DMSO stock, mean ± SD
Procedure: (§1) For the evaluation of antimicrobial activity, the following reference strains were used: S. aureus ATCC 25923, E. faecalis ATCC 29212, E. coli ATCC 25922, P. aeruginosa ATCC 27853 and C. albicans ATCC 10231. The microbial suspensions were prepared at a density of 1.5 × 10^8 CFU/mL, corresponding to the McFarland 0.5 nephelometric standard. These suspensions were obtained from 18–24 h cultures developed on solid media (Mueller-Hinton for bacteria, Sabouraud for yeast). Antimicrobial activity was assessed using an adapted Kirby-Bauer method according to CLSI (Clinical and Laboratory Standards Institute). In addition to the 10 mg/mL stock solutions prepared in DMSO for each compound, a solvent control was used. Each stock solution (10 μL) was distributed in spot on the medium inoculated with the interest strain. After measuring the diameter of the inhibition zone (IZD) around the spot (mm), the results were expressed as the mean ± standard deviation (SD) for each compound tested in duplicate.

S. aureus ATCC 25923 [2] = test: as above; type: cell-based; conditions: 10 μL of 10 mg/mL DMSO stock, mean ± SD
Procedure: as §1

E. coli ATCC 25922 [3] = test: as above; type: cell-based; conditions: 10 μL of 10 mg/mL DMSO stock, mean ± SD
Procedure: as §1

P. aeruginosa ATCC 27853 [4] = test: as above; type: cell-based; conditions: 10 μL of 10 mg/mL DMSO stock, mean ± SD
Procedure: as §1

C. albicans ATCC 10231 [5] = test: as above; type: cell-based; conditions: 10 μL of 10 mg/mL DMSO stock, mean ± SD
Procedure: as §1

E. faecalis ATCC 29212 [6] = test: Microbicidal activity (MMC); type: cell-based; conditions: DMSO control >5
Procedure: (§2) For the evaluation of antimicrobial activity, the following reference strains were used: S. aureus ATCC 25923, E. faecalis ATCC 29212, E. coli ATCC 25922, P. aeruginosa ATCC 27853 and C. albicans ATCC 10231. To determine the MMCs, 5 μL of culture was taken from each well and distributed on solid medium. The plates were incubated for 20–24 h at 37 °C. The lowest concentration at which no microbial growth was observed was considered MMC.

S. aureus ATCC 25923 [7] = test: Microbicidal activity (MMC); type: cell-based; conditions: DMSO control 5
Procedure: as §2

P. aeruginosa ATCC 27853 [8] = test: Microbicidal activity (MMC); type: cell-based; conditions: DMSO control 2.5
Procedure: as §2

C. albicans ATCC 10231 [9] = test: Microbicidal activity (MMC); type: cell-based; conditions: DMSO control 5
Procedure: as §2

E. faecalis ATCC 29212 [10] = test: Microbial adhesion, crystal violet (MICMA); type: cell-based; conditions: DMSO control 2.5
Procedure: (§3) For the evaluation of antimicrobial activity, the following reference strains were used: S. aureus ATCC 25923, E. faecalis ATCC 29212, E. coli ATCC 25922, P. aeruginosa ATCC 27853 and C. albicans ATCC 10231.
(§4) Following quantitative analysis of antimicrobial activity, microbial adhesion was evaluated after methanol fixation and violet crystal staining (0.1%). The absorbance of the adhered biomass colored with violet crystal and resuspended in 33% acetic acid was measured at 490 nm.

S. aureus ATCC 25923 [11] = test: Microbial adhesion, crystal violet (MICMA); type: cell-based; conditions: DMSO control 5
Procedure: as §3, §4

E. coli ATCC 25922 [12] = test: Microbial adhesion, crystal violet (MICMA); type: cell-based; conditions: DMSO control 5
Procedure: as §3, §4

C. albicans ATCC 10231 [13] = test: Microbial adhesion, crystal violet (MICMA); type: cell-based; conditions: DMSO control 1.25
Procedure: as §3, §4

E. faecalis ATCC 29212 [14] = test: Quantitative antimicrobial activity, serial binary microdilution (MIC, IC50); type: cell-based; conditions: 37 °C, DMSO control 2.5
Procedure: as §3
(§5) Quantitative analysis was performed using the method of serial binary microdilutions in liquid medium (Tryptone Soy Broth for bacteria and Sabouraud Broth for yeasts) in plates with 96 wells. Stock solutions of 10 mg/mL were made in DMSO, and the range of concentrations tested for each compound was 5000–0.16 μg/mL. Simultaneously, the DMSO control was carried out under the same working conditions. Each well was inoculated with 10 μL of microbial suspension, adjusted to a density of 1.5 × 10^8 CFU/mL prepared from 18 to 24 h cultures. After 24 h of incubation at 37 °C, microbial growth and multiplication were evaluated both macroscopically and spectrophotometrically at 620 nm to establish the MIC values. […] Blanks were made for each sample concentration, and the formula was applied: Microbial viability(%)=Asample−Ablank/Astrain control−Asterility control·100

S. aureus ATCC 25923 [15] = test: as above; type: cell-based; conditions: Staphylococcus aureus, ATCC25923; S. aureus ATCC 25923; 24 h, 37 °C; DMSO control 2.5
Procedure: as §3, §5

E. coli ATCC 25922 [16] = test: as above; type: cell-based; conditions: Escherichia coli, ATCC25922; E. coli ATCC 25922; 24 h, 37 °C; DMSO control 1.25
Procedure: as §3, §5

P. aeruginosa ATCC 27853 [17] = test: as above; type: cell-based; conditions: Pseudomonas aeruginosa, ATCC27853, 24 h, 37 °C, DMSO control 1.25
Procedure: as §3, §5

C. albicans ATCC 10231 [18] = test: as above; type: cell-based; conditions: Candida albicans, ATCC10231, 24 h, 37 °C, DMSO control 1.25
Procedure: as §3, §5

[19] = Total antioxidant capacity (TAC), DPPH method; conditions: 30 min, 517 nm, compound stock 1 mg/mL in methanol, reference ascorbic acid TAC = 100%
Procedure: The total antioxidant capacity (TAC) was evaluated using diphenyl-1-picrylhydrazyl free radical (DPPH) method. The TAC value was determined in relation to the antioxidant capacity of the reference (ascorbic acid, TAC = 100%). […] The maximum value was recorded for 1c (~45%), followed by 1f and 1a (~43%), while the minimum for 1e (~19%).
In this study, the TAC values were obtained using the most-known DPPH method, in which the intense violet colour of the free radical solution is decreasing. Stock solutions of compounds 1a–1f and 2 were prepared in absolute methanol at a concentration of 1 mg/mL. A stock solution of 2,2-diphenyl-1-picrylhydrazyl free radical was obtained in the same solvent, at a concentration of 2 × 10^−4 M. To 1.8 mL of DPPH solution was added 0.2 mL of each solution of the compounds 1a–1f and 2 and the mixture was left in the dark for 30 min, followed by measurements of the absorbance at 517 nm. The following equation was used to calculate TAC: TAC%=Abs0 min−Abs30 min/Abs0min·100 where Abs0 min refers to the initial absorbance of the DPPH free radical solution, and Abs 30 min refers to the absorbance of the solution of DPPH and the added compound after 30 min. Ascorbic acid was used as a reference.

Compound: COc1cc(/C=N/NC(=O)Cn2c(C)nc3ccccc3c2=O)cc([N+](=O)[O-])c1O [Compound 1f, N′-[(E)-(4-hydroxy-3-methoxy-5-nitrophenyl)methylidene]-2-(2-methyl-4-oxoquinazolin-3(4H)-yl)acetohydrazide]
- IZD (mm) (E. faecalis ATCC 29212 [1]): 0.00 ± 0.00 mm
- IZD (mm) (S. aureus ATCC 25923 [2]): 0.00 ± 0.00 mm
- IZD (mm) (E. coli ATCC 25922 [3]): 0.00 ± 0.00 mm
- IZD (mm) (P. aeruginosa ATCC 27853 [4]): 0.00 ± 0.00 mm
- IZD (mm) (C. albicans ATCC 10231 [5]): 0.00 ± 0.00 mm
- MMC (E. faecalis ATCC 29212 [6]): >5 mg/mL
- MMC (S. aureus ATCC 25923 [7]): 5 mg/mL
- MMC (P. aeruginosa ATCC 27853 [8]): 2.5 mg/mL
- MMC (C. albicans ATCC 10231 [9]): 5 mg/mL
- MICMA (E. faecalis ATCC 29212 [10]): 2.5 mg/mL
- MICMA (S. aureus ATCC 25923 [11]): 2.5 mg/mL
- MICMA (E. coli ATCC 25922 [12]): 2.5 mg/mL
- MICMA (C. albicans ATCC 10231 [13]): 1.25 mg/mL
- MIC (mg/mL) (E. faecalis ATCC 29212 [14]; 24 h): specifically active
- MIC (E. faecalis ATCC 29212 [14]; Enterococcus faecalis, ATCC29212, 24 h): 1250 µg/mL (≈ 3.04 mM)
- MIC (S. aureus ATCC 25923 [15]): 2500 µg/mL (≈ 6.08 mM)
- MIC (E. coli ATCC 25922 [16]): 1250 µg/mL (≈ 3.04 mM)
- MIC (P. aeruginosa ATCC 27853 [17]): 1250 µg/mL (≈ 3.04 mM)
- MIC (C. albicans ATCC 10231 [18]): 1250 µg/mL (≈ 3.04 mM)
- TAC (%) [19]: 43.4%
